Measurements from PubChem BioAssay AID330 (DTP/NCI, 2004).
“And” between values parts separate entries of the source, which are not always exact repeats. Equal entries are not always repeated. Toxic doses and inconclusive results are not listed.

System: P388 leukemia ip, CD2F1 mice, survival T/C
Test: NCI In Vivo Anticancer Drug Screen. Data for tumor model P388 Leukemia (intraperitoneal) in CD2F1 (CDF1) mice
Conditions: endpoint: median survival time, higher = longer survival
How it was run: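 Mice carrying the transplanted tumor received test compound or vehicle. Survival was recorded in each group, and the value is the treated-group measurement divided by that of the vehicle-treated control group.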

SMILES: ClCC[N+]12CC[N+](CCCl)(CC1)C2
- T/C (dose: 6.25 mg/kg/injection, schedule: Q01DX006 (ip), vehicle: water): 120 % of control
- T/C (dose: 6.25 mg/kg/injection, schedule: Q01DX009 (ip), vehicle: distilled water + Tween-80): 117 % of control
- T/C (dose: 6.25 mg/kg/injection, schedule: Q01DX009 (ip), vehicle: water): 115 % of control [middle of 4 runs]
- T/C (dose: 7.5 mg/kg/injection, schedule: Q01DX005 (iv), vehicle: clinical formulation): 105 % of control
- T/C (dose: 7.5 mg/kg/injection, schedule: Q01DX005 (iv), vehicle: water): 100 % of control and 106 % of control
- T/C (dose: 12.5 mg/kg/injection, schedule: Q01DX006 (ip), vehicle: water): 101 % of control
- T/C (dose: 12.5 mg/kg/injection, schedule: Q01DX009 (ip), vehicle: saline): 105 % of control
- T/C (dose: 12.5 mg/kg/injection, schedule: Q01DX009 (ip), vehicle: water): 100 % of control and 104 % of control and 107 % of control
- T/C (dose: 15.0 mg/kg/injection, schedule: Q01DX005 (iv), vehicle: clinical formulation): 105 % of control
- T/C (dose: 15.0 mg/kg/injection, schedule: Q01DX005 (iv), vehicle: water): 99 % of control and 110 % of control
- T/C (dose: 15.0 mg/kg/injection, schedule: Q01DX009 (ip), vehicle: clinical formulation): 100 % of control
- T/C (dose: 15.0 mg/kg/injection, schedule: Q01DX009 (ip), vehicle: water): 99 % of control and 116 % of control
- T/C (dose: 20.0 mg/kg/injection, schedule: Q01DX005 (ip), vehicle: water): 106 % of control
- T/C (dose: 21.08 mg/kg/injection, schedule: Q01DX009 (ip), vehicle: water): 115 % of control and 103 % of control
- T/C (dose: 23.71 mg/kg/injection, schedule: Q01DX005 (iv), vehicle: clinical formulation): 105 % of control
- T/C (dose: 23.71 mg/kg/injection, schedule: Q01DX005 (iv), vehicle: water): 110 % of control and 105 % of control
- T/C (dose: 25.0 mg/kg/injection, schedule: Q01DX006 (ip), vehicle: water): 113 % of control
- T/C (dose: 25.0 mg/kg/injection, schedule: Q01DX009 (ip), vehicle: water): 109 % of control and 115 % of control
- T/C (dose: 30.0 mg/kg/injection, schedule: Q01DX001 (ip), vehicle: water): 113 % of control
- T/C (dose: 30.0 mg/kg/injection, schedule: Q01DX001 (iv), vehicle: water): 109 % of control
- T/C (dose: 30.0 mg/kg/injection, schedule: Q01DX005 (ip), vehicle: water): 163 % of control
- T/C (dose: 30.0 mg/kg/injection, schedule: Q01DX005 (iv), vehicle: clinical formulation): 109 % of control
- T/C (dose: 30.0 mg/kg/injection, schedule: Q01DX005 (iv), vehicle: water): 113 % of control
- T/C (dose: 30.0 mg/kg/injection, schedule: Q01DX005 (oral), vehicle: water): 110 % of control
- T/C (dose: 30.0 mg/kg/injection, schedule: Q01DX009 (ip), vehicle: clinical formulation): 100 % of control
- T/C (dose: 30.0 mg/kg/injection, schedule: Q01DX009 (ip), vehicle: water): 123 % of control
- T/C (dose: 30.0 mg/kg/injection, schedule: Q01DX009 (oral), vehicle: water): 120 % of control
- T/C (dose: 31.61 mg/kg/injection, schedule: Q01DX009 (ip), vehicle: water): 119 % of control
- T/C (dose: 35.56 mg/kg/injection, schedule: Q01DX005 (iv), vehicle: clinical formulation): 111 % of control
- T/C (dose: 35.56 mg/kg/injection, schedule: Q01DX005 (iv), vehicle: water): 110 % of control and 106 % of control
- T/C (dose: 40.0 mg/kg/injection, schedule: Q01DX005 (ip), vehicle: water): 114 % of control
- T/C (dose: 44.0 mg/kg/injection, schedule: Q01DX009 (ip), vehicle: water): 158 % of control
- T/C (dose: 47.42 mg/kg/injection, schedule: Q01DX009 (ip), vehicle: water): 160 % of control
- T/C (dose: 50.0 mg/kg/injection, schedule: Q01DX006 (ip), vehicle: water): 123 % of control
- T/C (dose: 50.0 mg/kg/injection, schedule: Q01DX009 (ip), vehicle: saline with Tween-80): 100 % of control
- T/C (dose: 50.0 mg/kg/injection, schedule: Q01DX009 (ip), vehicle: saline): 162 % of control and 180 % of control
- T/C (dose: 50.0 mg/kg/injection, schedule: Q01DX009 (ip), vehicle: water): 113 % of control and 120 % of control
- T/C (dose: 50.0 mg/kg/injection, schedule: Q04DX003 (ip), vehicle: distilled water + Tween-80): 124 % of control
- T/C (dose: 53.34 mg/kg/injection, schedule: Q01DX005 (iv), vehicle: water): 115 % of control and 111 % of control
- T/C (dose: 60.0 mg/kg/injection, schedule: Q01DX001 (ip), vehicle: water): 115 % of control
- T/C (dose: 60.0 mg/kg/injection, schedule: Q01DX001 (iv), vehicle: water): 117 % of control
- T/C (dose: 60.0 mg/kg/injection, schedule: Q01DX001 (oral), vehicle: water): 109 % of control
- T/C (dose: 60.0 mg/kg/injection, schedule: Q01DX005 (ip), vehicle: water): 154 % of control and 170 % of control
- T/C (dose: 60.0 mg/kg/injection, schedule: Q01DX005 (iv), vehicle: clinical formulation): 120 % of control
- T/C (dose: 60.0 mg/kg/injection, schedule: Q01DX005 (oral), vehicle: water): 119 % of control
- T/C (dose: 60.0 mg/kg/injection, schedule: Q01DX009 (ip), vehicle: water): 155 % of control
- T/C (dose: 66.0 mg/kg/injection, schedule: Q01DX009 (ip), vehicle: water): 167 % of control
- T/C (dose: 71.12 mg/kg/injection, schedule: Q01DX009 (ip), vehicle: clinical formulation): 173 % of control
- T/C (dose: 71.12 mg/kg/injection, schedule: Q01DX009 (ip), vehicle: water): 177 % of control and 165 % of control
- T/C (dose: 80.0 mg/kg/injection, schedule: Q01DX005 (iv), vehicle: clinical formulation): 122 % of control
- T/C (dose: 80.0 mg/kg/injection, schedule: Q01DX005 (iv), vehicle: water): 119 % of control and 112 % of control
- T/C (dose: 100.0 mg/kg/injection, schedule: Q01DX005 (ip), vehicle: water): 155 % of control
- T/C (dose: 100.0 mg/kg/injection, schedule: Q01DX009 (ip), vehicle: saline with Tween-80): 189 % of control and 198 % of control and 213 % of control
- T/C (dose: 100.0 mg/kg/injection, schedule: Q01DX009 (ip), vehicle: saline): 153 % of control and 163 % of control and 182 % of control
- T/C (dose: 100.0 mg/kg/injection, schedule: Q01DX009 (oral), vehicle: saline with Tween-80): 112 % of control
- T/C (dose: 100.0 mg/kg/injection, schedule: Q04DX003 (ip), vehicle: distilled water + Tween-80): 151 % of control
- T/C (dose: 100.0 mg/kg/injection, schedule: Q04DX003 (ip), vehicle: saline with Tween-80): 154 % of control
- T/C (dose: 106.68 mg/kg/injection, schedule: Q01DX009 (ip), vehicle: water): 214 % of control
- T/C (dose: 120.0 mg/kg/injection, schedule: Q01DX001 (oral), vehicle: water): 114 % of control
- T/C (dose: 120.0 mg/kg/injection, schedule: Q01DX005 (ip), vehicle: water): 184 % of control
- T/C (dose: 150.0 mg/kg/injection, schedule: Q01DX009 (ip), vehicle: water): 99 % of control
- T/C (dose: 160.0 mg/kg/injection, schedule: Q01DX009 (ip), vehicle: water): 231 % of control
- T/C (dose: 178.0 mg/kg/injection, schedule: Q01DX001 (ip), vehicle: saline with Tween-80): 124 % of control
- T/C (dose: 200.0 mg/kg/injection, schedule: Q01DX009 (ip), vehicle: saline with Tween-80): 120 % of control and 233 % of control
- T/C (dose: 200.0 mg/kg/injection, schedule: Q01DX009 (ip), vehicle: saline): 234 % of control and 90 % of control
- T/C (dose: 200.0 mg/kg/injection, schedule: Q01DX009 (ip), vehicle: water): 180 % of control
- T/C (dose: 200.0 mg/kg/injection, schedule: Q04DX003 (ip), vehicle: distilled water + Tween-80): 171 % of control
- T/C (dose: 200.0 mg/kg/injection, schedule: Q04DX003 (ip), vehicle: saline with Tween-80): 186 % of control and 190 % of control
- T/C (dose: 240.0 mg/kg/injection, schedule: Q01DX001 (oral), vehicle: water): 117 % of control
- T/C (dose: 240.0 mg/kg/injection, schedule: Q01DX009 (ip), vehicle: water): 87 % of control
- T/C (dose: 264.0 mg/kg/injection, schedule: Q04DX003 (ip), vehicle: saline with Tween-80): 227 % of control
- T/C (dose: 400.0 mg/kg/injection, schedule: Q01DX001 (ip), vehicle: saline with Tween-80): 159 % of control
